Earlier results, collected in patent publication US20060264384A1, “Compositions and methods for treatment for neoplasms” (priority 2005, published 2006).

| Compound | solubility in organic solvents | solubility in water |
| --- | --- | --- |
| CCN(CC)C(=S)SSC(=S)N(CC)CC [Disulfiram] | soluble in solvents such as alcohol, ether, acetone, and benzene | barely soluble in water |
| CCc1c2c(nc3ccc(OC(=O)N4CCC(N5CCCCC5)CC4)cc13)-c1cc3c(c(=O)n1C2)COC(=O)[C@]3(O)CC [Irinotecan] | slightly soluble | slightly soluble |
| CC[C@@]1(O)C(=O)OCc2c1cc1n(c2=O)Cc2cc3c(CN(C)C)c(O)ccc3nc2-1 [Topotecan] |  | up to 1 mg/ml |
